In PubChem BioAssay (NCI):
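Briefly, cells in 96-well plates were exposed to five compound concentrations for 48 h, and endpoints were estimated by linear interpolation. TGI denotes the concentration required for complete inhibition of growth.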

Assays:
Assay in all cases: NCI tumour cell line growth inhibition, 48 h
[1] = test system: SNB-19 CNS
[2] = test system: OVCAR-4 ovarian
[3] = test system: PC-3 prostate
[4] = test system: K-562 leukemia
[5] = test system: MOLT-4 leukemia
[6] = test system: SW-620 colon
[7] = test system: SN12C renal
[8] = test system: DU-145 prostate
[9] = test system: HCC-2998 colon
[10] = test system: NCI-H226 lung
[11] = test system: MDA-N

Row | SMILES | TGI [1] [µM] | TGI [2] [µM] | TGI [3] [µM] | TGI [4] [µM] | TGI [5] [µM] | TGI [6] [µM] | TGI [7] [µM] | TGI [8] [µM] | TGI [9] [µM] | TGI [10] [µM] | TGI [11] [µM]
1 | CC(C)Oc1cc2c(cc1O)CC[C@@H]1[C@@H]2CC[C@]2(C)[C@@H](O)CC[C@@H]12 | 31.8 | 61.1 | > 67.4 | 30.8 | 30.2 | 27.2 | 29.1 | 59.7 | 20.9 | 18.4 | 3.6
2 | COC(=O)c1c(C)cccc1C1CN=NC12Cc1cccc(C)c1C2=O (centres undefined) | > 100 | > 100 | 71.1 | 79.5 | – | > 100 | > 100 | > 100 | > 100 | 98.4 | > 100
3 | COC(CC1(CCNc2ccccc2)C(=O)N(COCC[Si](C)(C)C)c2ccccc21)OC (centres undefined) | 33.1 | 28.6 | 27.8 | > 100 | > 100 | > 55.3 | 53.6 | 64.7 | 4.12 | 21.4 | > 68.2
4 | O=C(O)c1cc(Nc2c(O)c3c(c(O)c2Cl)C(=O)C=CC3=O)ccc1O | > 10 | > 10 | > 10 | > 10 | > 10 | > 10 | > 10 | > 10 | > 10 | > 10 | > 10
5 | O=c1oc2ccccc2c(O)c1C(c1ccc(O)cc1)c1c(O)c2ccccc2oc1=O | > 100 | > 100 | > 100 | – | – | > 100 | > 100 | > 100 | > 100 | > 100 | > 100
6 | NC(=O)CC[C@H]1C(=O)N=C(N)N1C(=O)OCc1ccccc1 | > 100 | > 100 | > 100 | > 100 | > 100 | > 100 | > 100 | > 100 | > 100 | > 100 | > 100
7 | CCn1c(O)c(C(=O)NC(C)c2ccc([N+](=O)[O-])cc2)c(=O)n(CC)c1=S (centres undefined) | 10.8 | 12.1 | 10.2 | 3.6 | 5.52 | 10.5 | 15 | 8.98 | 10.7 | 11.9 | 13.6
8 | Oc1ccc(O)c(Sc2nnc(CCCCCCCCc3nnc(Sc4cc(O)ccc4O)o3)o2)c1 | > 100 | > 100 | > 100 | > 100 | > 100 | > 100 | > 100 | > 100 | > 100 | > 100 | 32.9
9 | C=C(C)[C@@H]1CC[C@]2(C(=O)OC3OC(COC4OC(CO)C(OC5OC(C)C(O)C(O)C5O)C(O)C4O)C(O)C(O)C3O)CC[C@]3(C)[C@H](CC[C@@H]4[C@@]5(C)CC[C@H](O)[C@@](C)(CO)[C@@H]5CC[C@]43C)[C@@H]12 (some centres undefined) | > 10 | > 10 | > 8.45 | > 6.45 | – | > 10 | 9.79 | > 10 | > 6.91 | > 10 | > 10
10 | CCCC(CC)c1cc(O)c(O)cc1C(CC)CCC (centres undefined) | > 10 | > 10 | > 10 | > 10 | > 10 | > 10 | > 10 | > 10 | > 10 | > 10 | > 10
11 | CC1Cc2c(cc(N)nc2Br)NC1=O (centres undefined) | > 100 | > 100 | > 100 | > 100 | > 100 | > 100 | > 100 | > 100 | > 100 | > 100 | > 100
12 | Cc1cc(C)c(C#N)c(SC(=S)NC(=O)c2ccccc2)n1 | > 100 | > 100 | > 100 | > 100 | > 100 | > 100 | > 100 | > 100 | > 100 | > 100 | > 100
13 | O=P1(N(CCCl)CCCl)NCCCO1 (centres undefined) | > 250 | > 250 | > 250 | > 230 | > 250 | > 250 | > 250 | > 250 | > 205 | > 250 | > 250
14 | COC(C[C@H]1CCCC[C@]1(O)/C(=C\CO[Si](C(C)C)(C(C)C)C(C)C)Sc1ccccc1)OC | > 100 | > 100 | > 100 | > 100 | 38.8 | – | > 100 | > 100 | 34.2 | 62.4 | > 100
